Source: ChEMBL document CHEMBL1129167, “Examination of the role of the duocarmycin SA methoxy substituents: Identification of the minimum, fully potent DNA binding subunit” (Bioorg Med Chem Lett, 1996)

Test system: not listed separately
Assay: Compound was evaluated for relative DNA alkylation efficiency.
Format: functional

Compared with `COC(=O)c1cc2c([nH]1)C(=O)C=C1N(C(=O)c3cc4ccccc4[nH]3)C[C@H]3C[C@]123` (stereo in doubt; (+)-4) [listing 1 of 2 here], `COC(=O)c1cc2c([nH]1)C(=O)C=C1N(C(=O)c3cc4cc(OC)ccc4[nH]3)C[C@H]3C[C@]123` (stereo in doubt; (+)-5) [listing 1 of 2 here] is higher in krel: 0.05 for the first, 1 for the second.

Going from `COC(=O)c1cc2c([nH]1)C(=O)C=C1N(C(=O)c3cc4ccc(OC)cc4[nH]3)C[C@H]3C[C@]123` (stereo in doubt; (+)-6) [listing 1 of 2 here] to `COC(=O)c1cc2c([nH]1)C(=O)C=C1N(C(=O)c3cc4cccc(OC)c4[nH]3)C[C@H]3C[C@]123` (stereo in doubt; (+)-7) [listing 1 of 2 here], the krel falls from 0.2 to 0.1.

Molecule `COC(=O)c1cc2c([nH]1)C(=O)C=C1N(C(=O)c3cc4cc(OC)c(OC)c(OC)c4[nH]3)C[C@H]3C[C@]123` [DUOCARMYCIN] has a krel of 1.

Test system: L1210
Assay: In vitro cytotoxicity in L1210 cell lines
Format: functional, cell-based, Mus musculus

Going from `COC(=O)c1cc2c([nH]1)C(=O)C=C1N(C(=O)c3cc4ccccc4[nH]3)C[C@H]3C[C@]123` (stereo in doubt; (+)-4) [listing 2 of 2 here] to `COC(=O)c1cc2c([nH]1)C(=O)C=C1N(C(=O)c3cc4cc(OC)ccc4[nH]3)C[C@H]3C[C@]123` (stereo in doubt; (+)-5) [listing 2 of 2 here], the IC50 falls from 0.065 nM to 0.01 nM (6.5-fold).

Going from `COC(=O)c1cc2c([nH]1)C(=O)C=C1N(C(=O)c3cc4ccc(OC)cc4[nH]3)C[C@H]3C[C@]123` (stereo in doubt; (+)-6) [listing 2 of 2 here] to `COC(=O)c1cc2c([nH]1)C(=O)C=C1N(C(=O)c3cc4cc(OC)ccc4[nH]3)C[C@H]3C[C@]123` (stereo in doubt; (-)-5), the IC50 rises from 0.025 nM to 0.3 nM (12-fold). The first is the more potent here.

First: COC(=O)c1cc2c([nH]1)C(=O)C=C1N(C(=O)c3cc4cccc(OC)c4[nH]3)C[C@H]3C[C@]123 (stereo in doubt; (+)-7) [listing 2 of 2 here]
Second: COC(=O)c1cc2c([nH]1)C(=O)C=C1N(C(=O)c3cc4ccc(OC)cc4[nH]3)C[C@H]3C[C@]123 (stereo in doubt; (-)-6)
The IC50 of the first is 22-fold lower: 0.06 nM for the first, 1.3 nM for the second.

`COC(=O)c1cc2c([nH]1)C(=O)C=C1N(C(=O)c3cc4ccccc4[nH]3)C[C@H]3C[C@]123` (stereo in doubt; (-)-4) and `COC(=O)c1cc2c([nH]1)C(=O)C=C1N(C(=O)c3cc4cccc(OC)c4[nH]3)C[C@H]3C[C@]123` (stereo in doubt; (-)-7) are within 1.5-fold of each other in IC50: 1.7 nM for the first, 1.8 nM for the second.

For `COC(=O)c1cc2c([nH]1)C(=O)C=C1N(C(=O)c3cc4cc(OC)c(OC)c(OC)c4[nH]3)C[C@H]3C[C@]123` [DUOCARMYCIN], the IC50 was 0.1 nM.
